Measured values from patent publication US11178873B2, “Cyclic N-carboxamide compounds useful as herbicides” (FMC CORPORATION, priority 2015, dated 2021).

Assays:
Assay type in all cases: in vivo
[1] = system: barnyardgrass (Echinochloa crus-galli); assay: Test A preemergence, barnyardgrass; conditions: 0 to 100 scale, 0 no effect, 100 complete control
Outline: (§1)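 Visual injury scores (0 = no effect, 100 = complete control) were assigned roughly 10 d after treatment by comparison with untreated controls. Chemicals, formulated in a non-phytotoxic solvent mixture containing surfactant, were applied as a preemergence directed soil spray or postemergence to one- to two-leaf plants 2 to 10 cm tall.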

[2] = system: crabgrass, large (large crabgrass, Digitaria sanguinalis); assay: Test A preemergence, crabgrass, large; conditions: 0 to 100 scale, 0 no effect, 100 complete control
Text: (§2) Seeds of plant species selected from barnyardgrass (Echinochloa crus-galli), crabgrass, large (large crabgrass, Digitaria sanguinalis), kochia (Kochia scoparia), ragweed (common ragweed, Ambrosia elatior), morningglory (Ipomoea spp.), velvetleaf (Abutilon theophrasti), ryegrass, Italian (Italian ryegrass, Lolium multiflorum), foxtail, giant (giant foxtail, Setaria faberii), wheat (Triticum aestivum), corn (Zea mays), and pigweed (Amaranthus retroflexus), were planted into a blend of loam soil and sand and treated preemergence with a directed soil spray using test chemicals formulated in a non-phytotoxic solvent mixture which included a surfactant. At the same time, plants selected from these crop and weed species and also blackgrass (Alopecurus myosuroides), and galium (catchweed bedstraw, Galium aparine), were planted in pots containing the same blend of loam soil and sand and treated with postemergence applications of test chemicals formulated in the same manner. Plants ranged in height from 2 to 10 cm and were in the one- to two-leaf stage for the postemergence treatment. Treated plants and untreated controls were maintained in a greenhouse for approximately 10 d, after which time all treated plants were compared to untreated controls and visually evaluated for injury. Plant response ratings, summarized in Table A, are based on a 0 to 100 scale where 0 is no effect and 100 is complete control. A dash (-) response means no test result.

[3] = system: morningglory (Ipomoea spp.); assay: Test A preemergence, morningglory; conditions: 0 to 100 scale, 0 no effect, 100 complete control
Text: as §2

[4] = system: velvetleaf (Abutilon theophrasti); assay: Test A preemergence, velvetleaf; conditions: 0 to 100 scale, 0 no effect, 100 complete control
Text: as §2

[5] = system: foxtail, giant (giant foxtail, Setaria faberii); assay: Test A preemergence, foxtail, giant; conditions: 0 to 100 scale, 0 no effect, 100 complete control
Outline: as §1

[6] = system: wheat (Triticum aestivum); assay: Test A preemergence, wheat; conditions: 0 to 100 scale, 0 no effect, 100 complete control
Text: as §2

corn (Zea mays) [7] = assay: Test A preemergence, corn; conditions: 0 to 100 scale, 0 no effect, 100 complete control
Text: as §2

[8] = system: pigweed (Amaranthus retroflexus); assay: Test A preemergence, pigweed; conditions: 0 to 100 scale, 0 no effect, 100 complete control
Outline: as §1

[9] = system: barnyardgrass (Echinochloa crus-galli); assay: Test A postemergence, barnyardgrass; conditions: 0 to 100 scale, 0 no effect, 100 complete control
Outline: as §1

[10] = system: crabgrass, large (large crabgrass, Digitaria sanguinalis); assay: Test A postemergence, crabgrass, large; conditions: 0 to 100 scale, 0 no effect, 100 complete control
Text: as §2

[11] = system: morningglory (Ipomoea spp.); assay: Test A postemergence, morningglory; conditions: 0 to 100 scale, 0 no effect, 100 complete control
Text: as §2

[12] = system: velvetleaf (Abutilon theophrasti); assay: Test A postemergence, velvetleaf; conditions: 0 to 100 scale, 0 no effect, 100 complete control
Text: as §2

[13] = system: foxtail, giant (giant foxtail, Setaria faberii); assay: Test A postemergence, foxtail, giant; conditions: 0 to 100 scale, 0 no effect, 100 complete control
Outline: as §1

[14] = system: wheat (Triticum aestivum); assay: Test A postemergence, wheat; conditions: 0 to 100 scale, 0 no effect, 100 complete control
Outline: as §1

corn (Zea mays) [15] = assay: Test A postemergence, corn; conditions: 0 to 100 scale, 0 no effect, 100 complete control
Outline: as §1

[16] = system: pigweed (Amaranthus retroflexus); assay: Test A postemergence, pigweed; conditions: 0 to 100 scale, 0 no effect, 100 complete control
Outline: as §1

[17] = system: barnyardgrass (Echinochloa crus-galli); assay: Test B flooded paddy test, barnyardgrass; conditions: Flood, 250 g ai/ha; scale 0 to 100 (0 no effect, 100 complete control); 13 to 15 d
Outline: (§3)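 Plants grown to the 2-leaf stage. At treatment, pots were flooded to 3 cm above the soil, compound was applied directly to the paddy water, and that depth was held throughout. After 13 to 15 d in the greenhouse, response was rated visually against controls on a 0 (no effect) to 100 (complete control) scale.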

[18] = system: ducksalad (Heteranthera limosa); assay: Test B flooded paddy test, ducksalad; conditions: Flood, 250 g ai/ha; scale 0 to 100 (0 no effect, 100 complete control); 13 to 15 d
Outline: as §3

rice (Oryza sativa) = assay: Test B flooded paddy test, rice; conditions: Flood, 250 g ai/ha; scale 0 to 100 (0 no effect, 100 complete control); 13 to 15 d
Outline: as §3

[19] = system: sedge, umbrella (small-flower umbrella sedge, Cyperus difformis); assay: Test B flooded paddy test, sedge, umbrella; conditions: Flood, 250 g ai/ha; scale 0 to 100 (0 no effect, 100 complete control); 13 to 15 d
Outline: as §3

## O=C(Nc1ccccc1C(F)(F)F)N1C(=O)OCC1c1ccc(F)c(F)c1 (stereo not shown) [Compound 1]
[1]; 125 g ai/ha
  Plant response rating, Barnyardgrass: 0
[1]; 500 g ai/ha
  Plant response rating, Barnyardgrass: 0
[2]; 125 g ai/ha
  Plant response rating, Crabgrass, Large: 30
[2]; 500 g ai/ha
  Plant response rating, Crabgrass, Large: 70
[3]; 125 g ai/ha
  Plant response rating, Morningglory: 0
[3]; 500 g ai/ha
  Plant response rating, Morningglory: 0
[4]; 125 g ai/ha
  Plant response rating, Velvetleaf: 0
[4]; 500 g ai/ha
  Plant response rating, Velvetleaf: 0
[5]; 125 g ai/ha
  Plant response rating, Foxtail, Giant: 0
[5]; 500 g ai/ha
  Plant response rating, Foxtail, Giant: 0
[6]; 125 g ai/ha
  Plant response rating, Wheat: 0
[6]; 500 g ai/ha
  Plant response rating, Wheat: 0
Corn (Zea mays) [7]; 125 g ai/ha
  Plant response rating, Corn: 0
Corn (Zea mays) [7]; 500 g ai/ha
  Plant response rating, Corn: 0
[8]; 125 g ai/ha
  Plant response rating, Pigweed: 0
[8]; 500 g ai/ha
  Plant response rating, Pigweed: 0
[9]; 125 g ai/ha
  Plant response rating, Barnyardgrass: 0
[9]; 500 g ai/ha
  Plant response rating, Barnyardgrass: 0
[10]; 125 g ai/ha
  Plant response rating, Crabgrass, Large: 0
[10]; 500 g ai/ha
  Plant response rating, Crabgrass, Large: 20
[11]; 125 g ai/ha
  Plant response rating, Morningglory: 0
[11]; 500 g ai/ha
  Plant response rating, Morningglory: 0
[12]; 125 g ai/ha
  Plant response rating, Velvetleaf: 0
[12]; 500 g ai/ha
  Plant response rating, Velvetleaf: 0
[13]; 125 g ai/ha
  Plant response rating, Foxtail, Giant: 0
[13]; 500 g ai/ha
  Plant response rating, Foxtail, Giant: 0
[14]; 125 g ai/ha
  Plant response rating, Wheat: 0
[14]; 500 g ai/ha
  Plant response rating, Wheat: 0
Corn (Zea mays) [15]; 125 g ai/ha
  Plant response rating, Corn: 0
Corn (Zea mays) [15]; 500 g ai/ha
  Plant response rating, Corn: 0
[16]; 125 g ai/ha
  Plant response rating, Pigweed: 0
[16]; 500 g ai/ha
  Plant response rating, Pigweed: 0
[17]
  Plant response rating, Barnyardgrass: 0
[18]
  Plant response rating, Ducksalad: 0
Rice (Oryza sativa)
  Plant response rating, Rice: 0
[19]
  Plant response rating, Sedge, Umbrella: 0

## O=C1NCC(c2ccccc2)N1C(=O)Nc1ccccc1 (stereo not shown) [Compound 6]
[1]; 1000 g ai/ha
  Plant response rating, Barnyardgrass: 0
[2]; 1000 g ai/ha
  Plant response rating, Crabgrass, Large: 50
[3]; 1000 g ai/ha
  Plant response rating, Morningglory: 0
[4]; 1000 g ai/ha
  Plant response rating, Velvetleaf: 0
[5]; 1000 g ai/ha
  Plant response rating, Foxtail, Giant: 0
[6]; 1000 g ai/ha
  Plant response rating, Wheat: 0
Corn (Zea mays) [7]; 1000 g ai/ha
  Plant response rating, Corn: 0
[8]; 1000 g ai/ha
  Plant response rating, Pigweed: 0
[9]; 1000 g ai/ha
  Plant response rating, Barnyardgrass: 0
[10]; 1000 g ai/ha
  Plant response rating, Crabgrass, Large: 0
[11]; 1000 g ai/ha
  Plant response rating, Morningglory: 0
[12]; 1000 g ai/ha
  Plant response rating, Velvetleaf: 0
[13]; 1000 g ai/ha
  Plant response rating, Foxtail, Giant: 0
[14]; 1000 g ai/ha
  Plant response rating, Wheat: 0
Corn (Zea mays) [15]; 1000 g ai/ha
  Plant response rating, Corn: 0
[16]; 1000 g ai/ha
  Plant response rating, Pigweed: 0

## O=C(Nc1ccccc1F)N1C(=O)OCC1c1ccc(F)c(F)c1 (stereo not shown) [Compound 3, 4-(3,4-difluorophenyl)-N-(2-fluorophenyl)-2-oxo-3-oxazolidinecarboxamide]
[1]; 1000 g ai/ha
  Plant response rating, Barnyardgrass: 0
[2]; 1000 g ai/ha
  Plant response rating, Crabgrass, Large: 90
[3]; 1000 g ai/ha
  Plant response rating, Morningglory: 0
[4]; 1000 g ai/ha
  Plant response rating, Velvetleaf: 0
[5]; 1000 g ai/ha
  Plant response rating, Foxtail, Giant: 50
[6]; 1000 g ai/ha
  Plant response rating, Wheat: 0
Corn (Zea mays) [7]; 1000 g ai/ha
  Plant response rating, Corn: 0
[8]; 1000 g ai/ha
  Plant response rating, Pigweed: 0
[9]; 1000 g ai/ha
  Plant response rating, Barnyardgrass: 20
[10]; 1000 g ai/ha
  Plant response rating, Crabgrass, Large: 80
[12]; 1000 g ai/ha
  Plant response rating, Velvetleaf: 0
[13]; 1000 g ai/ha
  Plant response rating, Foxtail, Giant: 40
[14]; 1000 g ai/ha
  Plant response rating, Wheat: 0
Corn (Zea mays) [15]; 1000 g ai/ha
  Plant response rating, Corn: 0
[16]; 1000 g ai/ha
  Plant response rating, Pigweed: 0
